Patent US20090131308A1, “Splice Variants of ErbB Ligands, Compositions and Uses Thereof” (AGOS BIOTECH LTD., priority 2003, published 2009)
Entries after “also recorded” stand apart in the source; their conditions may differ. No end group written: not given here.

Columns and labels:
[1] = test system: Betacellulin; experiment: BIAcore ligand-ligand interaction, immobilized Betacellulin; type: binding, human or bovine; conditions: peptide 0.3-10 μM (in some cases 50 μM); BIAcore 3000, blank channel subtracted; FIG. 6
Description: Biosensor analyses were performed using a BIAcore™ 3000. A CM-5 (research grade) sensor chip was immobilized with recombinant human or bovine EGF, TGF alpha and Betacellulin on flowcells 2, 3 and 4, respectively. Immobilizations were performed using amine coupling chemistry in 10 mM Sodium Acetate at pH 4.2. Varying concentrations (0.3 μM, 0.6 μM, 1.25 μM, 2.5 μM, 5 μM, 10 μM [and in some cases 50 μM]) of hNRG2(1-32), mEGF(1-32) & hEGF(1-32) were injected (30 μl) over the sensor surfaces in HBS running buffer (10 mM HEPES, 3.4 mM EDTA, 0.15M NaCl, 0.005% Tween 20, pH 7.4) at a flow rate of 5 μl/min. The surfaces were then regenerated by injecting 10 μl of 10 mM NaOH at a flow rate of 20 μl/min. The resulting sensor curves were subtracted against the blank channel (Flowcell 1) to yield the specific response.

[2] = test system: BaF/3 cells transfected with the EGFR (BaF/3-EGFR); experiment: Activatory ligand stimulated mitogenesis assay; type: cell-based; conditions: for potentiation of mitogenesis of BaF/3-EGFR cells: titrating concentrations of variant ligand, preliminary results, data not shown
Description: BaF/3 cells transfected with the EGFR (BaF/3-EGFR; Walker et al, Growth Factors 16: 53-67, 1998) are washed three times to remove residual IL-3 and resuspended in RPMI 1640+10% FCS. Cells are then seeded into 96 well plates using a Biomek 2000 (Beckman) at 2×10^4 cells per 200 microlitres and incubated for 4 h at 37 C in 10% CO2. To determine the efficacy of this system with a positive control, cells are first grown with titrating concentrations of activatory ligand EGF alone, to determine the minimum amount of ligand required to achieve maximal or sub-maximal receptor-mediated mitogenesis for these cells. […] Titrating concentrations of ErbB variant ligands are added to the cells to test their mitogenic potential. In a similar manner, BaF/3 or different cells expressing a range of ErbB receptors, rendering them mitogenically responsive to ErbB ligand stimulation, are used to test these and other variant ligands for activatory ligand stimulated mitogenesis (exemplified in Harari et. al., 1999).

[3] = test system: soluble ErbB1 (soluble EGFR amino acids 1-501 and 1-621); experiment: BIAcore receptor binding assay, immobilized soluble EGFR; conditions: peptide up to 10 uM; BIAcore 3000, CM-5 chip; data not shown
Description: (§1) Biosensor analyses were performed using a BIAcore™ 3000. A CM-5 (research grade) sensor chip was immobilized with soluble EGFR (amino acids 1-501), soluble EGFR (amino acids 1-621) and soluble ErbB2 (amino acids 1-509) on flowcells 2, 3 and 4, respectively. Immobilizations were performed using amine coupling chemistry in 10 mM Sodium Acetate at pH 4.2. Varying concentrations (1.25 μM, 2.5 μM, 5 μM and 10 μM) of peptides were injected (30 μl) over the sensor surfaces in HBS running buffer (10 mM HEPES, 3.4 mM EDTA, 0.15M NaCl, 0.005% Tween 20, pH 7.4) at a flow rate of 5 μl/min. The surfaces were then regenerated by injecting 10 μl of 10 mM NaOH at a flow rate of 20 μl/min. The resulting sensor curves were subtracted against the blank channel (Flowcell 1) to yield the specific response.

[4] = target: T1, soluble ErbB2 (amino acids 1-509) (Homo sapiens, UniProt P04626); experiment: BIAcore receptor binding assay, immobilized soluble ErbB2; conditions: peptide up to 10 uM; BIAcore 3000, CM-5 chip; data not shown
T1 construct: soluble ErbB2 (amino acids 1-509)
Description: as §1

| Substance | binding to immobilized Betacellulin [1] | potentiation of mitogenesis of BaF/3-EGFR cells [2] | binding to immobilized soluble ErbB1 [3] | binding to immobilized soluble ErbB2 [4] | mitogenic response of BaF/3-EGFR cells ([2]; positive control at a concentration of approximately 200 μM) |
| --- | --- | --- | --- | --- | --- |
| NSDSECPLSHDGYCLHDGVCMYIEALDKYACK-OH (not fully specified; C-terminal free acid) [hEGF(1-32)] | no binding |  |  |  |  |
| GHARKCNETAKSYCVNGGVCYYIEGINQLSCK-OH (also: air-oxidised refolding, disulfide pairing not given here) [hNRG2(1-32)] | weak binding; also recorded: low affinity interaction | do not potentiate mitogenesis | failed to demonstrate measurable binding | failed to demonstrate measurable binding |  |
| NSYPGCPSSYDGYCLNGGVCMHIESLDSYTCK-OH (C-terminal free acid) [mEGF(1-32)] | weak binding; also recorded: low affinity interaction | do not potentiate mitogenesis | failed to demonstrate measurable binding | failed to demonstrate measurable binding |  |
| EGF: activatory ligand EGF purified from mouse salivary glands, positive control (NSYPGCPSSYDGYCLNGGVCMHIESLDSYTCNCVIGYSGDRCQTRDLRWWELR; Epidermal growth factor; UniProt P01132 977-1029, looked up) [reference compound] |  |  |  |  | sub-maximal to maximal mitogenic response |
